Reference: patent publication USRE38257E1, “Piperdine derivatives and hypotensives containing the same” (Ajinomoto Co., Inc., priority 1988, dated 2003)

Tested on: male spontaneously hypertensive rats
Experiment: Decrease in systolic blood pressure in spontaneously hypertensive rats after intravenous bolus injection, indirect (tail-cuff) method
Assay type: in vivo, rat
Conditions: for Decrease in systolic blood pressure (mmHg) time after administration (hour) 0.5: 0.5 hour after administration; for Decrease in systolic blood pressure (mmHg) time after administration (hour) 4: 4 hours after administration
Method: As test animals, four male spontaneously hypertensive rats (weight 400 to 440 g) that were sufficiently adapted for feeding and in which hypertension was confirmed were used.
Physiological saline aqueous solution containing 2.5% Nicolle and 2.5% ethanol of sample was intravenously administered by bolus injection at a dose of 1 ml per 1 kg of body weight. Systolic blood pressure after administration was measured by the indirect (tail-cuff) method.

[1] = dose 10 mg/kg i.v. bolus, hydrochloride, 10 mg/kg

| Structure (SMILES) | Decrease in systolic blood pressure (mmHg) time after administration (hour) 0.5 (dose 10 mg/kg i.v. bolus) [mmHg] | Decrease in systolic blood pressure (mmHg) time after administration (hour) 4 (dose 10 mg/kg i.v. bolus) [mmHg] | further results |
| --- | --- | --- | --- |
| CC(=O)Nc1ccc(CCCN2CCC(=C3c4ccccc4C=Cc4ccccc43)CC2)cc1.Cl.Cl [Example 249, 1-(4-Acetylaminophenyl)-3-(4-(5H-Dibenzo[a,d]cyclohepten-5-ylidene)-1-piperidinyl)propane dihydrochloride] | −121 | −100 | – |
| Cl.O=[N+]([O-])c1ccccc1CCCN1CCC(=C2c3ccccc3C=Cc3ccccc32)CC1 [Example 250, 3-(4-(5H-Dibenzo[a,d]cyclohepten-5-ylidene)-1-piperidinyl)-1-(2-nitrophenyl)propane hydrochloride] | −136 | −30 | – |
| Cl.Cl.Nc1ccccc1CCCN1CCC(=C2c3ccccc3C=Cc3ccccc32)CC1 [Example 251, 1-(2-Aminophenyl)-3-(4-(5H-Dibenzo[a,d]cyclohepten-5-ylidene)-1-piperidinyl)propane dihydrochloride] | −110 | −24 | – |
| CC(=O)Nc1ccccc1CCCN1CCC(=C2c3ccccc3C=Cc3ccccc32)CC1.Cl.Cl [Example 252, 1-(2-Acetylaminophenyl)-3-(4-(5H-Dibenzo[a,d]cyclohepten-5-ylidene)-1-piperidinyl)propane dihydrochloride] | −23 | −5 | – |
| Cl.O=[N+]([O-])c1ccccc1CCCCN1CCC(=C2c3ccccc3C=Cc3ccccc32)CC1 [Example 255, 4-(4-(5H-Dibenzo[a,d]cyclohepten-5-ylidene)-1-piperidinyl)-1-(2-nitrophenyl)butane hydrochloride] | −62 | 2 | – |
| CCOC(=O)C(CCN1CCC(=C2c3ccccc3C=Cc3ccccc32)CC1)CC1CCCCC1.Cl (centres unmarked) [Example 259, Ethyl 2-cyclohexylmethyl-4-(4-(5H-dibenzo[a,d]cyclohepten-5-ylidene)-1-piperidinyl)butyrate hydrochloride] | −46 | −5 | – |
| CC(=O)NC1CCC(CCCCN2CCC(=C3c4ccccc4C=Cc4ccccc43)CC2)CC1.Cl (centres unmarked) [Example 260, 1-(4-acetylamino-1-cyclohexyl)-4-(4-(5H-dibenzo[a,d]cyclohepten-5-ylidene)-1-piperidinyl)butane hydrochloride] | −51 | −10 | – |
| CCOC(=O)C(CCC1CCCCC1)CN1CCC(=C2c3ccccc3C=Cc3ccccc32)CC1.Cl (centres unmarked) [Example 262] | −16 | −3 | – |
| COc1cc2nc(N3CCC(=C4c5ccccc5C=Cc5ccccc54)CC3)nc(N)c2cc1OC.Cl.Cl [Example 266, 2-(4-(5H-Dibenzo[a,d]cyclohepten-5-ylidene)-1-piperidinyl)-4-amino-6,7-dimethoxyquinazoline dihydrochloride] | −133 | −77 | – |
| CC(=O)N(CCCN1CCC(=C2c3ccccc3C=Cc3ccccc32)CC1)C1CCCCC1.Cl [Example 267, N-Acetyl-N-(3-4-(5H-Dibenzo[a,d]cyclohepten-5-ylidene)-1-piperidinyl)-1-propylcyclohexylamine hydrochloride] | −40 | 0 | – |
| Cl.O=C1CCCCN1CCCCN1CCC(=C2c3ccccc3C=Cc3ccccc32)CC1 [Example 268, N-(4-(4-(5H-Dibenzo[a,d]cyclohepten-5-ylidene)-1-piperidinyl)-1-butyl)-2-piperidone hydrochloride] | −29 | 13 | – |
| CCOC(=O)C1(CCCCN2CCC(=C3c4ccccc4C=Cc4ccccc43)CC2)CCCCC1.Cl [Example 269, 1-(4-(4-(5H-Dibenzo[a,d]cyclohepten-5-ylidene)-1-piperidinyl)-1-butyl)-1-ethoxycarbonxylcyclohexane hydrochloride] | 143 | −71 | – |
| C1=Cc2ccccc2C(=C2CCN(CCCc3cccnc3)CC2)c2ccccc21.Cl.Cl [Example 270, 3-(4-(5H-Dibenzo[a,d]cyclohepten-5-ylidene)-1-piperidinyl)-1-(3-pyridyl)propane dihydrochloride] | −18 | 2 | – |
| Cl.OCC1(CCCCN2CCC(=C3c4ccccc4C=Cc4ccccc43)CC2)CCCCC1 [Example 272, 1-(4-(4-(5H-Dibenzo[a,d]cyclohepten-5-ylidene)-1-piperidinyl)-1-butyl)-1-hydroxymethylcyclohexane hydrochloride] | −76 | −3 | – |
| CC(=O)OCC1(CCCCN2CCC(=C3c4ccccc4C=Cc4ccccc43)CC2)CCCCC1.Cl [Example 273, 1-Acetoxymethyl-1-(4-(4-(5H-dibenzo[a,d]cyclohepten-5-ylidene)-1-piperidinyl)-1-butyl)cyclohexane hydrochloride] | −37 | 5 | – |
| COc1ccc(C(=O)C(C)CCN2CCC(=C3c4ccccc4C=Cc4ccccc43)CC2)cc1OC.Cl (centres unmarked) [Example 274, 4-(4-(5H-Dibenzo[a,d]cyclohepten-5-ylidene)-1-piperidinyl)-2-methyl-3′,4′-dimethoxybutyrophenone hydrochloride] | −102 | −21 | – |
| COc1ccc(C(=O)C(CCN2CCC(=C3c4ccccc4C=Cc4ccccc43)CC2)C(C)C)cc1OC.Cl (centres unmarked) [Example 275, 4-(4-(5H-Dibenzo[a,d]cyclohepten-5-ylidene)-1-piperidinyl)-2-(2-propyl)-3′,4′-dimethoxybutyrophenone hydrochloride] | −66 | −20 | – |
| C=CCC(CCN1CCC(=C2c3ccccc3C=Cc3ccccc32)CC1)C(=O)c1ccc(OC)c(OC)c1.Cl (centres unmarked) [Example 276, 2-Allyl-4-(4-(5H-dibenzo[a,d]cyclohepten-5-ylidene)-1-piperidinyl)-3′,4′dimethoxybutyrophenone hydrochloride] | −24 | −1 | – |
| CCCC(CCN1CCC(=C2c3ccccc3C=Cc3ccccc32)CC1)C(=O)c1ccc(OC)c(OC)c1.Cl (centres unmarked) [Example 277, 4-(4-(5H-dibenzo[a,d]cyclohepten-5-ylidene)-1-piperidinyl)-2-(1-propyl)-3′,4′-dimethoxybutyrophenone hydrochloride] | −27 | 0 | – |
| CCC(CCN1CCC(=C2c3ccccc3C=Cc3ccccc32)CC1)C(=O)c1ccc(OC)c(OC)c1.Cl (centres unmarked) [Example 278, 4-(4-(5H-dibenzo[a,d]cyclohepten-5-ylidene)-1-piperidinyl)-2-ethyl-3′,4′-dimethoxybutyrophenone hydrochloride] | −64 | 2 | – |
| C1=Cc2ccccc2C(=C2CCN(CCOCC3CCCCC3)CC2)c2ccccc21.Cl [Example 279] | – | – | Decrease in systolic blood pressure (mmHg) time after administration (hour) 0.5 (dose 3 mg/kg i.v. bolus): −83 mmHg; Decrease in systolic blood pressure (mmHg) time after administration (hour) 4 (dose 3 mg/kg i.v. bolus): −24 mmHg |
| CC(=O)N1CCCC(CCCN2CCC(=C3c4ccccc4C=Cc4ccccc43)CC2)C1.Cl (centres unmarked) [Example 280, 1-(n-Acetyl-3-piperidinyl)-3-(4-(5H-Dibenzo[a,d]cyclohepten-5-ylidene)-1-piperidinyl)propane hydrochloride] | −50 | −11 | – |
| C1=Cc2ccccc2C(=C2CCN(CCCC3CCCNC3)CC2)c2ccccc21.Cl.Cl (centres unmarked) [Example 281, 3-(4-(5H-Dibenzo[a,d]cyclohepten-5-ylidene)-1-piperidinyl)-1-(3-piperidinyl)propane dihydrochloride] | −31 | −5 | – |
| COc1ccc(CCCCN2CCC(=C3c4ccccc4C=Cc4ccccc43)CC2)cc1NC(C)=O.Cl [Example 282, 1-(3-Acetylamino-4-methoxyphenyl)-4-(4-(5H-dibenzo[a,d]cyclohepten-5-ylidene)-1-piperidinyl)butane hydrochloride] | −72 | −15 | – |
| C1=Cc2ccccc2C(=C2CCN(CCCCC3CCCCC3)CC2)c2ccccc21.Cl [Example 283, 4-(4-(4-(5H-Dibenzo[a,d]cyclohepten-5-ylidene)-1-piperidinyl)-1-butyl)cyclohexane hydrochloride] | – | – | Decrease in systolic blood pressure (mmHg) time after administration (hour) 0.5 [1]: −112 mmHg; Decrease in systolic blood pressure (mmHg) time after administration (hour) 4 [1]: 4 mmHg |
